# Assay results reported in publication PMC10700596 (Nature Communications, 2023).
# Several values for one entry are separate records, joined by “and”; a condition that tells them apart may be missing. Identical values can stand only once. Like-named read-outs stand apart in the source and are kept apart here.
# What was measured:
# EP4R [1] = molecular target: T1, EP4R (Homo sapiens, UniProt P35408); assay: PRESTO-Tango β-arrestin2 recruitment assay; format: cell-based; conditions: for antagonist activity at EP4R: concentration-response
# T1 construct: Tango fusion cassette (only 'tango' is printed); expressed in transfected cells; host or cells: HTLA cells (tTA-dependent luciferase reporter, β-arrestin2-TEV fusion)
# T1 sequence (P35408 whole entry, the tested form may be a part): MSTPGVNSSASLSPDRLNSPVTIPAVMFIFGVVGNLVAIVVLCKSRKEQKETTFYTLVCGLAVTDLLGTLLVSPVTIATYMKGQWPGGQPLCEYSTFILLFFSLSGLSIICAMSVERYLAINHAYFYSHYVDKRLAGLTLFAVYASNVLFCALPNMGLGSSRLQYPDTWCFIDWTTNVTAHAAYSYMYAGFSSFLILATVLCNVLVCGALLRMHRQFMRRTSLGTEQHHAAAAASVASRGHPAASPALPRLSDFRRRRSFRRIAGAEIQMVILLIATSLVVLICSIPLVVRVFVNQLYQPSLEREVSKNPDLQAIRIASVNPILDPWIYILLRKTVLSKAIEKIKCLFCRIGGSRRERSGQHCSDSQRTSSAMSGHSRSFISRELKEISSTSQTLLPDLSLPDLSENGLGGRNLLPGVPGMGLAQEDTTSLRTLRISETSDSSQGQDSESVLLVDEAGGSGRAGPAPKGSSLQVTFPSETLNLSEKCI
# EP4R [2] = molecular target: T1, EP4R; assay: biochemical; format: binding
# wild-type EP4R = wild-type EP4R (Homo sapiens, UniProt P35408); assay: cell-based
# Sequence of wild-type EP4R (P35408 whole entry): as the sequence (P35408 whole entry, the tested form may be a part) above
# [3] = molecular target: T2, Thromboxane A2 (TP) receptor (Homo sapiens, UniProt P21731); assay: Functional cAMP production assay, TP receptor; format: cell-based; conditions: agonist alone, replicate columns
# T2 sequence (P21731 1-343): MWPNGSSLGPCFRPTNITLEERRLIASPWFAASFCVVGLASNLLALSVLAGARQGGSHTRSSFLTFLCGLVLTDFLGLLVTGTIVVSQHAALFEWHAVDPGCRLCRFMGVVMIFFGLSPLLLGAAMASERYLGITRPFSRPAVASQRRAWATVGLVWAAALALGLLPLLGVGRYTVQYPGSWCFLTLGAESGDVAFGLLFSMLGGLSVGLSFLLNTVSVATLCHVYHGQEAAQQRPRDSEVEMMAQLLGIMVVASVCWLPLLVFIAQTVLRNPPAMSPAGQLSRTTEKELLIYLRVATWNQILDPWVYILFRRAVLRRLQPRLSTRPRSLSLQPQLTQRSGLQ
# [4] = PRESTO-Tango -logIC50, antagonist mode, EC80 of PGE2
# [5] = PRESTO-Tango IC50 (nM), antagonist mode, EC80 of PGE2
# [6] = read-out: % displacement of 3HPGE2 at 10 µM, 10 µM compound vs 10 nM 3H-PGE2
# [7] = calculated using the Cheng Prusoff equation, read-out: PRESTO-Tango Ki*
# [8] = calculated using the Cheng Prusoff equation, read-out: Arrestin-BRET Ki*
# [9] = 10 µM compound vs 10 nM 3H-PGE2, read-out: % displacement of 3HPGE2 at 10 µM
compound,measurement,setting,value
"CN1C(=O)C(=Cc2cccc(OCC(=O)O)c2)c2cc(Br)cnc21 [Compound 62, CN1C(=O)C(=CC=2C=CC=C(OCC(=O)O)C2)C=3C=C(Br)C=NC13]",IC50,EP4R [1]; [4],3470 nM
same,IC50,EP4R [1]; [5],3510 nM
same,Ki,EP4R [1]; PRESTO-Tango Ki* (nM),702 nM
same,antagonist activity at EP4R,EP4R [1],dose-dependent antagonist activity
same,inhibition at 10 µM,EP4R [2]; [6],17.2%
"CCc1ccc(C(=O)Nc2cccc(-c3nnn[nH]3)c2)c(C)n1 [Compound 63, CCC=1C=CC(C(=O)NC=2C=CC=C(C2)C3=NN=NN3)=C(C)N1]",inhibition at 10 µM,EP4R [2]; [6],19.3%
"Cc1ccc(-n2nc(C(=O)Nc3ccc(CC(=O)O)cc3)c3c2CCC3)cc1 [Compound 64, CC=1C=CC(=CC1)N2N=C(C(=O)NC=3C=CC(CC(=O)O)=CC3)C=4CCCC42]",inhibition at 10 µM,EP4R [2]; [6],20%
"O=C(O)CC1CN(C(=O)[C@@H]2C[C@]23CCOc2ccccc23)c2ccccc21 (stereo partly drawn) [Compound 65, OC(=O)CC1CN(C(=O)[C@@H]2C[C@@]32CCOC=4C=CC=CC43)C=5C=CC=CC15]",IC50,EP4R [1]; [5],5160 nM
same,Ki,"EP4R [1]; PRESTO-Tango Ki* (nM), calculated using the Cheng Prusoff equation",1030 nM
same,antagonist activity at EP4R,EP4R [1],dose-dependent antagonist activity
same,inhibition at 10 µM,"EP4R [2]; read-out: 3H-PGE2 Displacement by 10 µM of docking hits (Displacment), 10 µM compound, individual replicate values (Figure 1B source data)",23.4%
same,inhibition at 10 µM,EP4R [2]; [6],24%
"O=C(NC1CCCC(C(=O)O)CC1)c1csc(C2CCCCC2)c1 (stereo not drawn) [Compound 66, OC(=O)C1CCCC(CC1)NC(=O)C2=CSC(=C2)C3CCCCC3]",IC50,EP4R [1]; PRESTO-Tango -logIC50,3720 nM
same,IC50,EP4R [1]; PRESTO-Tango IC50 (nM),3760 nM
same,Ki,EP4R [1]; [7],752 nM
same,antagonist activity at EP4R,EP4R [1],dose-dependent antagonist activity
same,IC50,wild-type EP4R,4050 nM
same,Ki,wild-type EP4R; [8],810 nM
same,inhibition at 10 µM,EP4R [2]; [9],25.6%
"Cn1nnnc1NCC(C(=O)OCc1ccccc1)c1ccccc1 (stereo not drawn) [Compound 67, CN1N=NN=C1NCC(C(=O)OCC=2C=CC=CC2)C=3C=CC=CC3]",inhibition at 10 µM,EP4R [2]; [6],31.5%
"O=C(O)Cc1ccc(NC(=O)c2cc(C3CC3)nc3ccc(F)cc23)cc1 [Compound 68, OC(=O)CC=1C=CC(NC(=O)C=2C=C(N=C3C=CC(F)=CC23)C4CC4)=CC1]",IC50,EP4R [1]; [4],11000 nM
same,IC50,EP4R [1]; [5],> 10000 nM
same,antagonist activity at EP4R,EP4R [1],dose-dependent antagonist activity
same,inhibition at 10 µM,EP4R [2]; [6],31.8%
"Cc1c(C(=O)N(C)c2nnn[nH]2)cnn1-c1ccc(Cl)cc1 [Compound 69, CN(C(=O)C=1C=NN(C1C)C=2C=CC(Cl)=CC2)C3=NN=NN3]",inhibition at 10 µM,EP4R [2]; [6],37.7%
"N#Cc1ccc(OCc2cccc(C(=O)Nc3cccc(-c4nnn[nH]4)c3)c2)cc1 [Compound 70, O=C(NC=1C=CC=C(C1)C2=NN=NN2)C=3C=CC=C(COC=4C=CC(C#N)=CC4)C3]",IC50,EP4R [1]; PRESTO-Tango -logIC50,14500 nM
same,IC50,EP4R [1]; PRESTO-Tango IC50 (nM),> 10000 nM
same,antagonist activity at EP4R,EP4R [1],dose-dependent antagonist activity
same,inhibition at 10 µM,EP4R [2]; [6],56.2%
"O=C(O)C1CCC2(CC1)CC(Nc1ncnc3sc4c(c13)CCCC4)C2 (stereo not drawn) [Compound 71, OC(=O)C1CCC2(CC(C2)NC=3N=CN=C4SC=5CCCCC5C34)CC1]",IC50,EP4R [1]; PRESTO-Tango IC50 (nM),850 nM
same,Ki,EP4R [1]; [7],170 nM
same,antagonist activity at EP4R,EP4R [1],dose-dependent antagonist activity
same,IC50,wild-type EP4R,899 nM
same,ligand efficiency,wild-type EP4R,0.35 kcal/mol per “heavy” atom
same,Ki,wild-type EP4R; [8],180 nM
same,inhibition at 10 µM,EP4R [2]; [9],62.9%
"O=C(O)C1CCC2(CC1)CC(Nc1ncnc3sc4ccccc4c13)C2 (stereo not drawn) [Compound 72, OC(=O)C1CCC2(CC(C2)NC=3N=CN=C4SC=5C=CC=CC5C34)CC1]",IC50,EP4R [1]; PRESTO-Tango IC50 (nM),444 nM
same,Ki,EP4R [1]; [7],89 nM
same,IC50,wild-type EP4R,514 nM
same,Ki,wild-type EP4R; [8],103 nM
"O=C(O)C1CCC2(CC1)CC(Nc1ncnc3[nH]c4ccccc4c13)C2 (stereo not drawn) [Compound 73, OC(=O)C1CCC2(CC(C2)NC=3N=CN=C4NC=5C=CC=CC5C34)CC1]",IC50,EP4R [1]; PRESTO-Tango IC50 (nM),548 nM
same,Ki,EP4R [1]; [7],110 nM
same,IC50,wild-type EP4R,146 nM
same,ligand efficiency,wild-type EP4R,0.40 kcal/mol per “heavy” atom
same,Ki,wild-type EP4R; [8],29 nM
"Cn1c2ccccc2c2c(NC3CC4(CCC(C(=O)O)CC4)C3)ncnc21 (stereo not drawn) [Compound 75, CN1C=2C=CC=CC2C=3C(NC4CC5(C4)CCC(CC5)C(=O)O)=NC=NC13]",IC50,EP4R [1]; PRESTO-Tango IC50 (nM),607 nM
same,Ki,EP4R [1]; PRESTO-Tango Ki* (nM),121 nM
same,IC50,wild-type EP4R,813 nM
same,Ki,wild-type EP4R,163 nM
same,reduced potency of analog,wild-type EP4R,up to 10 fold
"O=C(N[C@@H]1CC[C@@H](C(=O)O)CCC1(F)F)c1c[nH]c(-c2ccccc2)c1 [Compound 80, OC(=O)[C@@H]1CC[C@@H](NC(=O)C2=CNC(=C2)C=3C=CC=CC3)C(F)(F)CC1]",IC50,EP4R [1]; [4],18600 nM
same,IC50,EP4R [1]; [5],> 10000 nM
same,Ki,EP4R [2],1380 nM
"Cc1cc(C(=O)NC2CCCC(C(=O)O)CC2)c(C)n1-c1ccc2c(c1)OCCO2 (stereo not drawn) [Compound 81, CC1=CC(C(=O)NC2CCCC(CC2)C(=O)O)=C(C)N1C=3C=CC=4OCCOC4C3]",IC50,EP4R [1]; [4],35500 nM
same,IC50,EP4R [1]; [5],> 10000 nM
same,Ki,EP4R [2],1170 nM
"O=C(O)C1CCC2(CC1)CC(Nc1ncnc3[nH]c4cc(F)ccc4c13)C2 (stereo not drawn) [Compound 134, OC(=O)C1CCC2(CC(C2)NC=3N=CN=C4NC=5C=C(F)C=CC5C34)CC1]",IC50,EP4R [1]; PRESTO-Tango IC50 (nM),203 nM
same,Ki,EP4R [1]; PRESTO-Tango Ki* (nM),41 nM
same,IC50,wild-type EP4R,155 nM
same,Ki,wild-type EP4R,31 nM
"O=C(O)C1CCC2(CC1)CC(Nc1ncnc3[nH]c4ccc(Br)cc4c13)C2 (stereo not drawn) [Compound 135, OC(=O)C1CCC2(CC(C2)NC=3N=CN=C4NC=5C=CC(Br)=CC5C34)CC1]",IC50,EP4R [1]; PRESTO-Tango IC50 (nM),91.5 nM
same,Ki,EP4R [1]; PRESTO-Tango Ki* (nM),18.3 nM
same,IC50,wild-type EP4R,136 nM
same,Ki,wild-type EP4R,27.2 nM
CCCCC[C@H](O)/C=C/[C@@H]1[C@@H](C/C=C\CCCC(=O)O)[C@H]2CO[C@@H]1C2 [Compound U46619],"Thromboxane Receptor response, U46619 alone",[3]; Log[Drug] -4.52,101.694 and 84.622 and 99.9733
same,"Thromboxane Receptor response, U46619 alone",[3]; Log[Drug] -5,98.3839 and 68.3538 and 108.147 and 95.8866 and 103.858 and 102.233 and 110.843 and 96.4513 and 100.005 and 98.4577 and 94.7206 and 109.077
same,"Thromboxane Receptor response, U46619 alone",[3]; Log[Drug] -5.52,90.8596 and 73.8682 and 91.1581 and 74.0123 and 88.5137 and 87.193 and 76.6016 and 83.785 and 87.9816 and 86.9707 and 87.4905
same,"Thromboxane Receptor response, U46619 alone",[3]; Log[Drug] -6,73.0479 and 61.333 and 83.5479 and 72.2309 and 75.4547 and 85.5682 and 93.0317 and 74.9476 and 75.1314 and 67.4734 and 82.2643
same,"Thromboxane Receptor response, U46619 alone",[3]; Log[Drug] -6.52,53.1945 and 46.9117 and 56.4473 and 51.2866 and 54.1589 and 49.4671 and 53.794 and 49.5996 and 46.1382 and 46.7815 and 52.9845 and 63.6908
same,"Thromboxane Receptor response, U46619 alone",[3]; Log[Drug] -7,26.7811 (2×) and 28.7836 and 26.1246 and 27.7368 and 28.2234 and 28.3716 and 27.3608 and 24.4507 and 37.3892
same,"Thromboxane Receptor response, U46619 alone",[3]; Log[Drug] -7.52,6.98 and 11.6509 and 14.4408 and 11.9391 and 9.265 and 14.6944 and 12.5961 and 11.3627
same,"Thromboxane Receptor response, U46619 alone",[3]; Log[Drug] -8,3.852 and 4.407 and 5.259 and 6.346 and 4.095 and 3.487 and 3.973 and 12.9637 and 7.1283 and 8.507 and 7.772 and 8.062
same,"Thromboxane Receptor response, U46619 alone",[3]; Log[Drug] -8.52,0.6979 and 0.4256 and 1.264 and 1.489 and 0.4372 and 0.7674 and -0.6982 and -0.1162 and -0.5757 and -0.4127
same,"Thromboxane Receptor response, U46619 alone",[3]; Log[Drug] -9,1.749 and 1.539 and -0.4127 and -0.8139 and 0.03755 and 0.2374 and 1.155 and 2.074 and -0.008962 and 0.4505 and -0.2293
"CC(C(=O)Nc1cc(C#N)ccc1CCCC(=O)O)c1ccc(F)c2ccccc12 (stereo not drawn) [ONO-AE3-208, reference compound]",Ki,wild-type EP4R; [8],1.3 nM
